Data reported in patent US12522597B2, “Methods and compositions for modulating splicing” (Skyhawk Therapeutics, Inc., priority 2019, dated 2026).
Read-outs that look alike come from different tables or passages of the source.

How the values were obtained:
[1] = test system: MDR1-MDCK cell monolayers; experiment: MDCK-MDR1 permeability assay (BBB penetration potential); type: in vitro ADME; conditions: dog, MDCK-MDR1, 120 min, 5 μM, pH 7.4
Description: (§1) Each determination is performed in duplicate. […] Analytical conditions are outlined below.

MDR1 = experiment: as above; type: in vitro ADME; conditions: dog; for efflux ratio at 120 min, 5 μM: MDCK-MDR1, pH 7.4, MDCK-MDR1: Efflux; for Papp A→B at 120 min, 5 μM: MDCK-MDR1, pH 7.4, MDCK-MDR1: Papp A-B; for Papp B→A at 120 min, 5 μM: MDCK-MDR1, pH 7.4, MDCK-MDR1: Papp B-A
Description: as §1

mHTT protein = mHTT protein assay (2B7-MW1, Mesoscale Discovery); type: cell-based, human; conditions: GM04724 (CAG 70/20) Huntington's disease patient lymphoblast cells, 48 hours, 2B7-MW1 MSD; read-out: HTT Potency - Protein EC50 mHTT (average)
Method in brief: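 mHTT levels were read with the 2B7-MW1 antibody pair (N17 and polyQ epitopes) on MSD after 48 h dosing, 10 μM–0.6 nM. Cells were GM04724 HD lymphoblasts (CAG 70/20). A replica plate was read by CTG for cell viability.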

[2] = test system: Huntingtin (HTT) transcripts; experiment: Quantitative splicing assay (HTT), qPCR; type: cell-based; conditions: Homo sapiens, GM04724 (CAG 70/20) Huntington's disease patient lymphoblasts, 24 h
Description: GM04724 (CAG 70/20) Huntington's disease patient lymphoblasts (Coriell) are plated in 96-wel v-bottom plates at 50,000 cells/well. Immediately after plating, cells are dosed with compound for 24 h at concentrations ranging from 2.5 uM to 0.15 nM (0.1% DMSO). Treated cells are lysed and cDNA synthesized using the Fast Advanced Cells-to-Ct kit (Thermofisher A35378) according to the manufacturer's instructions. 2 uL of each cDNA are used in qPCR reactions to confirm the compound-induced inclusion of a cryptic exon within intron 49 of the Huntingtin (HTT) transcripts. The qPCR reactions are prepared in 384-well plates in 10 uL volume, using TaqMan™ Fast Advanced Master Mix [ThermoFisher; 4444965] with primers and probes shown in the table below. Reactions are run in a Quant Studio 6 qPCR instrument with default settings.

[3] = qPCR HTTex49_50, read-out: HTT Potency - Splicing: E49-50 EC50 (average)
[4] = qPCR cryptic exon 49b inclusion, read-out: HTT Potency - Splicing: E49b EC50 (average)

Row | SMILES | MDCK-MDR1: % Recov A-B [1] [%] | MDCK-MDR1: % Recov B-A [1] [%] | efflux ratio at 120 min, 5 μM (MDR1) | Papp A→B at 120 min, 5 μM (MDR1) [×10⁻⁶ cm/s] | Papp B→A at 120 min, 5 μM (MDR1) [×10⁻⁶ cm/s] | EC50 (mHTT protein) [nM] | EC50 [2, 3] [nM] | EC50 [2, 4] [nM] | MDCK-MDR1: Efflux [1] | MDCK-MDR1: Papp A-B [1] | MDCK-MDR1: Papp B-A [1]
1 | Cn1c(=O)oc2cc(-c3ccc(O[C@H]4C[C@@H]5CCC[C@@H](N5)[C@H]4F)nn3)c(O)cc21 (single isomer, unassigned) [74-ENT2] | 87 | 75 | 5 | 6.96 | 31.4 | 501 to 10000 | 501 to 10000 | 501 to 10000 | – | – | –
2 | Cn1cc(-c2ccc(-c3ccc(O[C@H]4C[C@@H]5CCC[C@@H](N5)[C@H]4F)nn3)c(O)c2)cn1 (single isomer, unassigned) [1-ENT2] | 76 | 83 | 6 | 6.05 | 33.7 | 0.01 to 15 | 16 to 50 | 16 to 50 | – | – | –
3 | Cn1ccc2cc(O)c(-c3ccc(O[C@H]4C[C@]5(C)CC[C@@](C)(N5)[C@H]4F)nn3)cc2c1=O (single isomer, unassigned) [130-ENT1] | 78 | 80 | 6 | 7.86 | 43.7 | 0.01 to 15 | 51 to 100 | 16 to 50 | – | – | –
4 | Cn1cnc(-c2ccc(-c3ccc(O[C@@H]4C[C@@]5(C)CCC[C@](C)(N5)[C@@H]4F)nn3)c(O)c2)cc1=O (single isomer, unassigned) [139-ENT1] | 75 | 75 | 14 | 2.36 | 32.1 | 0.01 to 15 | 16 to 50 | 16 to 50 | – | – | –
5 | Oc1cc(-c2cn[nH]c2)ccc1-c1ccc(O[C@H]2C[C@@H]3CCC[C@@H](N3)[C@H]2F)nn1 (single isomer, unassigned) [40-ENT1] | 83 | 85 | 19 | 2.67 | 49.9 | 0.01 to 15 | 0.01 to 15 | 0.01 to 15 | – | – | –
6 | Oc1cc(-c2cn[nH]c2)ccc1-c1ccc(O[C@@H]2C[C@H]3COC[C@H](N3)[C@@H]2F)nn1 (single isomer, unassigned) [123-ENT1] | 86 | 90 | 14 | 6.22 | 87.8 | 101 to 500 | 101 to 500 | 101 to 500 | – | – | –
7 | Cn1ccc(-c2cc(O)c(-c3ccc(O[C@@H]4C[C@H]5CCC[C@H](N5)[C@@H]4F)nn3)cc2F)cc1=O (single isomer, unassigned) [58-ENT1] | 97 | 103 | 49 | 0.92 | 45.1 | 0.01 to 15 | 16 to 50 | 16 to 50 | – | – | –
8 | Cn1ccc2cc(O)c(-c3ccc(O[C@H]4C[C@@H]5CCC[C@@H](N5)[C@H]4F)nn3)cc2c1=O (single isomer, unassigned) [128-ENT1] | – | – | 7 | 5.27 | 38.6 | 16 to 50 | 51 to 100 | 51 to 100 | 11 | 5.78 10^−6, cm/s | 65.2 10^−6, cm/s
9 | Oc1cc(-c2cn[nH]c2)ccc1-c1ccc(O[C@H]2C[C@@H]3CC[C@@H](N3)[C@@H]2F)nn1 (single isomer, unassigned) [43-ENT1] | 76 | 79 | 7 | 7.44 | 48.9 | 0.01 to 15 | 16 to 50 | 16 to 50 | – | – | –
10 | Cn1cc(-c2cc(O)c(-c3ccc(O[C@@H]4C[C@H]5CC[C@H](N5)[C@@H]4F)nn3)cc2F)cn1 (single isomer, unassigned) [61-ENT1] | 43 | 79 | 3 | 4.83 | 13.8 | 16 to 50 | 16 to 50 | 0.01 to 15 | – | – | –
